“And” between values parts separate entries of the source, which are not always exact repeats. Identical values can stand only once.
Legend:
[1] = Molar enthalpy of transition or fusion; conditions: Crystal; DSC
[2] = molar enthalpy of vaporization or sublimation; conditions: Static calorimetry

COc1cc(C=O)ccc1O [vanillin]
Conditions | molar enthalpy [kcal/mol] | vapor or sublimation pressure
303.13 K, Crystal, Calculated from knudsen effusion weight loss | – | 6.6e-05 kPa and 6.5e-05 kPa
305.32 K, Crystal, Calculated from knudsen effusion weight loss | – | 8.9e-05 kPa and 8.8e-05 kPa
307.19 K, Crystal, Calculated from knudsen effusion weight loss | – | 0.000112 kPa and 0.000113 kPa and 0.000114 kPa
309.13 K, Crystal, Calculated from knudsen effusion weight loss | – | 0.000144 kPa and 0.000142 kPa and 0.000145 kPa
311.35 K, Crystal, Calculated from knudsen effusion weight loss | – | 0.000185 kPa and 0.000182 kPa and 0.000187 kPa
313.2 K, Crystal, Calculated from knudsen effusion weight loss | – | 0.000235 kPa and 0.000234 kPa and 0.000236 kPa
315.11 K, Crystal, Calculated from knudsen effusion weight loss | – | 0.000292 kPa and 0.00029 kPa and 0.000294 kPa
317.29 K, Crystal, Calculated from knudsen effusion weight loss | – | 0.000384 kPa and 0.000383 kPa
319.19 K, Crystal, Calculated from knudsen effusion weight loss | – | 0.000472 kPa and 0.000474 kPa and 0.000478 kPa
320.95 K, Crystal, Closed cell (Static) method | – | 0.00058 kPa
321.11 K, Crystal, Calculated from knudsen effusion weight loss | – | 0.000597 kPa and 0.000586 kPa and 0.000599 kPa
322.92 K, Crystal, Closed cell (Static) method | – | 0.00072 kPa
323.29 K, Crystal, Calculated from knudsen effusion weight loss | – | 0.000759 kPa and 0.00075 kPa and 0.000765 kPa
324.92 K, Metastable liquid, Closed cell (Static) method | – | 0.00192 kPa
324.98 K, Crystal, Closed cell (Static) method | – | 0.00092 kPa
325.2 K, Crystal, Calculated from knudsen effusion weight loss | – | 0.000955 kPa and 0.000953 kPa and 0.00094 kPa
326.9 K, Crystal, Closed cell (Static) method | – | 0.00114 kPa
326.91 K, Metastable liquid, Closed cell (Static) method | – | 0.00226 kPa
328.87 K, Metastable liquid, Closed cell (Static) method | – | 0.00268 kPa
328.94 K, Crystal, Closed cell (Static) method | – | 0.00143 kPa
330.87 K, Metastable liquid, Closed cell (Static) method | – | 0.00316 kPa
330.89 K, Crystal, Closed cell (Static) method | – | 0.00175 kPa
332.83 K, Metastable liquid, Closed cell (Static) method | – | 0.00373 kPa
332.87 K, Crystal, Closed cell (Static) method | – | 0.00215 kPa
334.8 K, Metastable liquid, Closed cell (Static) method | – | 0.00439 kPa
334.84 K, Crystal, Closed cell (Static) method | – | 0.00266 kPa
336.81 K, Metastable liquid, Closed cell (Static) method | – | 0.00517 kPa
336.83 K, Crystal, Closed cell (Static) method | – | 0.0033 kPa
338.81 K, Metastable liquid, Closed cell (Static) method | – | 0.00609 kPa
338.83 K, Crystal, Closed cell (Static) method | – | 0.00407 kPa
340.8 K, Metastable liquid, Closed cell (Static) method | – | 0.00717 kPa
340.83 K, Crystal, Closed cell (Static) method | – | 0.00502 kPa
342.78 K, Metastable liquid, Closed cell (Static) method | – | 0.00834 kPa
342.8 K, Crystal, Closed cell (Static) method | – | 0.0061 kPa
344.77 K, Crystal, Closed cell (Static) method | – | 0.00747 kPa
344.79 K, Metastable liquid, Closed cell (Static) method | – | 0.00978 kPa
346.69 K, Metastable liquid, Closed cell (Static) method | – | 0.01123 kPa
346.73 K, Crystal, Closed cell (Static) method | – | 0.00911 kPa
348.72 K, Crystal, Closed cell (Static) method | – | 0.01103 kPa
348.73 K, Metastable liquid, Closed cell (Static) method | – | 0.01314 kPa
350.68 K, Metastable liquid, Closed cell (Static) method | – | 0.01523 kPa
350.7 K, Crystal, Closed cell (Static) method | – | 0.01345 kPa
352.63 K, Metastable liquid, Closed cell (Static) method | – | 0.01755 kPa
354.6 K, Metastable liquid, Closed cell (Static) method | – | 0.02014 kPa
356.63 K, Closed cell (Static) method, Liquid | – | 0.02334 kPa
358.57 K, Closed cell (Static) method, Liquid | – | 0.02665 kPa
360.48 K, Closed cell (Static) method, Liquid | – | 0.03073 kPa
362.45 K, Closed cell (Static) method, Liquid | – | 0.03517 kPa
364.45 K, Closed cell (Static) method, Liquid | – | 0.04012 kPa
366.47 K, Closed cell (Static) method, Liquid | – | 0.04555 kPa
368.43 K, Closed cell (Static) method, Liquid | – | 0.05205 kPa
370.37 K, Closed cell (Static) method, Liquid | – | 0.05931 kPa
372.38 K, Closed cell (Static) method, Liquid | – | 0.06765 kPa
374.32 K, Closed cell (Static) method, Liquid | – | 0.07665 kPa
376.51 K, Closed cell (Static) method, Liquid | – | 0.08673 kPa
378.22 K, Closed cell (Static) method, Liquid | – | 0.09764 kPa
380.28 K, Closed cell (Static) method, Liquid | – | 0.1104 kPa
382.26 K, Closed cell (Static) method, Liquid | – | 0.1243 kPa
[2], 298.15 K, Crystal | 23.8 | –
[2], 375.81 K, Liquid | 17.9 | –

Conditions | Normal melting temperature [°C]
Crystal, DTA | 82.6

Conditions | Molar enthalpy of transition or fusion [kcal/mol]
[1] | 5.47
